From patent publication EP3833345B1, “SMALL MOLECULE-INHIBITORS OF 6-PHOSPHOFRUCTO-1-KINASE FOR REDUCING LACTATE GENERATION BY CANCER CELLS” (Kemijski Institut, priority 2018, dated 2020)
“Also recorded” adds a separate entry of the source.

How the values were obtained:
COLO 829 cells [1] = test: cytotoxicity in COLO 829 cells (LDH kit); format: cell-based; conditions: for average percentages of dead cells, COLO 829, sequential re-insertion: sequential addition at 24-hour intervals, 92 hours, average over medium without and with inhibitor; for average percent of dead COLO 829 cells: single addition, average over control and different concentrations of inhibitor
Procedure: (§1) Lactate generation, growth yield and survival under normal and inhibitory conditions of three different tumorigenic cells lines were determined in more detailed measurements. […] Cytotoxicity was measured by the Lactate dehydrogenase (LDH) kit (Roche).

Jurkat cells [2] = test: growth and survival of Jurkat cells (Countess, Trypan blue); format: cell-based
Procedure: The effects of both inhibitors were tested also on growth of the non-adherent Jurkat cells. Total amount of cells and the number of dead cells was determined by the Countess (Invitrogen, Carlsbad, CA). […].

Jurkat cells [3] = test: long-term fed-batch cultivation of Jurkat cells (18 days); conditions: 100 µM, fed-batch, 18 days
Jurkat cells [4] = test: lactate excretion by Jurkat cells (enzymatic L-lactic acid kit); format: cell-based, human
Procedure: The cells were incubated in 1 mL volume (24 well plates) at 5% CO2 and 37°C. The inhibitors were added in 100 µM concentration. As a control, equivalent amount of DMSO as used for the addition of inhibitors was supplemented to the medium. The tests started with 1×10^5 cells per mL. Extracellular lactate excreted by the Jurkat cells was measured in the supernatant of the growth medium after the cells were removed by centrifugation at 1500 rpm for 5 minutes. Lactate concentration was determined enzymatically using L-Lactatic acid kit (K-LATE, Megazyme, Ireland).
Measurements of lactate excretion in the tumorigenic Jurkat cells and the cells treated with two selected inhibitors at different concentrations were repeated by more detailed measurements. The growth conditions were identical to those described in Experiment 2. No significant difference in lactate excretion could be observed by the treated and untreated cells during the initial stage of growth that lasted for approximately 12 hours. Later on lactate excretion by the Jurkat cells ceased in the presence of both inhibitors.

Caco-2 cells [5] = test: cytotoxicity in Caco-2 cells (lactate dehydrogenase (LDH) kit); format: cell-based; conditions: for average percent of dead cells, Caco-2: single addition, average over control and different concentrations of inhibitor
Procedure: as §1

Jurkat cells [6] = test: NADH levels in Jurkat cells (NADH/NAD fluorometric assay kit); format: cell-based, human; conditions: 24 hours after addition, different concentrations
Procedure: By inhibiting modified PFK-M enzyme in the cancer cells, glycolytic flux should be decreased and concomitantly NADH levels reduced. To verify that, the amounts of reduced pyridine nucleotide was measured by NADH/NAD fluorometric assay kit (Abcam). The Jurkat cells were seeded into the wells of 96 wells plate at 5×10^5 cells per mL. The untreated cells (control) and the cells with specified amounts of added Inhibitors No. 3 and No. 9 were incubated for 24 hours.

Jurkat cells [7] = test: Seahorse XF assay (ECAR and OCR) in Jurkat cells; format: cell-based, human
Procedure: The efficiency of Inhibitors No. 3 and No. 9 was also tested by the determinations of glycolytic capacities in Jurkat cells in the presence and absence of inhibitors. For this purpose, Seahorse XF assay (Agilent Technology) was performed that enables non-destructive measurements of extracellular acidification rate (ECAR) and oxygen consumption rate (OCR) of tested cells. The cells were incubated in […] GlutaMAX medium with 10% FBS and 24 hours before the experiment inhibitors were added (100 µM). Non-adherent Jurkat cells (1×10^6 per mL) were stuck to the bottom of the wells by poly-I-lysine. The experiment was conducted essentially as recommended by Seahorse XF protocol and after 20 minutes of incubation, 1 µM of oligomycin A (ATP synthase inhibitor) and 0,25 µM of Carbonyl cyanide-4-(trifluoromethoxy)phenylhydrazone (FCCP) (mitochondrial oxidative phosphorylation uncoupler) were added to the cells. […] Reduced lactate excretion by the cells treated with both inhibitors might be responsible for reduced ECARs. Although the addition of oligomycin A and FCCP increased the extracellular acidification rate by the cells treated with both inhibitors, similar increase of ECAR was also observed in the untreated cells. […] It implies that inhibited PFK1 enzymes might reduce glycolytic flux and prevent the need for pyruvate reduction into lactate by re-oxidizing redundant cytosolic NADH. Under such conditions pyruvate can enter mitochondria, replenishing tri-carboxylic acids (TCA) cycle and fuelling oxidative respiration.

COLO 829 cells [8] = test: lactate excretion by COLO 829 cells; format: cell-based; conditions: for lactate formation in COLO 829 cells, sequential re-insertion: inhibitor added 8 hours after inoculation, then at 24-hour intervals, low concentrations (from 10 µM)
Procedure: (§2) Preliminary in vivo tests were run by measuring lactate production by three different tumorigenic cell lines. Again, 100 µM concentrations of tested compounds have been added to the medium. For the experiment, the following tumorigenic cells lines originating from different tumours were tested: Caco-2 cells (Figure 10a), originating from colorectal adenoma carcinoma; COLO 829 cells (Figure 10b), isolated from melanoma; and MDA-MB-231 cells (Figure 10c) derived from metastatic phase of mammary/breast cancer. All adherent cell lines were grown in the RPMI 1640 GlutaMAX substrate (Thermo Fisher) supplemented with 10% FBS.
On the basis of preliminary results, inhibitors No. 23, 29, 30 and 31 were tested on COLO 829 cells. […] No significant discrepancies of total cell numbers in respect to the control were observed due to the different concentrations of inhibitors in the medium (Figure 13e). The average percent of dead COLO 829 cells in the control and in the presence of different concentrations of inhibitors were as follows: inh. 23 (9,23±0,6%), inh. 29 (9,31±0,73%), inh. 30 (8,27±0,49%), inh. 31 (8,26±0,38%). Additionally, cytotoxicity of inh. 3 (5,01±1,08%) and 9 (3,65±0,78%) for COLO 829 cells were also determined. No dose dependent decrease of survival was observed by any inhibitor.
(§3) A decrease in inhibitory effectiveness of some compounds was observed after certain period of time (Example 11). […] Therefore, the influence of selected inhibitors was assessed by sequential re-insertion of low concentrations of inhibitors at indicated time points. The inhibitors were first added to the medium 8 hours after the inoculation followed by periodically additions at 24-hour intervals (marked by arrows).
No significant cytostatic (Figure 16f) of cytotoxic effect of inhibitors could be detected after 92 hours of incubation despite of sequential addition of various concentrations of inhibitors. The following average percentages of dead cells were perceived in the medium without and media with inh. 3 (1,95±0,15%) inh. 9 (1,70±0,14%), inh. 23 (2,40±0,09%), inh. 29 (1,66±0,25%) and inh. 30 (1,38±0,18%). No detrimental effects of increased inhibitors concentrations on cell deaths have been observed.

MDA-MB-231 cells [9] = test: cytotoxicity in MDA-MB-231 cells (LDH kit); format: cell-based; conditions: for average percentages of dead cells, MDA-MB-231, sequential re-insertion: sequential addition at 24-hour intervals, 92 hours, average over medium without and with inhibitor; for average percent of dead MDA-MB-231 cells: single addition, average over control and different concentrations of inhibitor
Procedure: as §1
Inhibitors No. 23, 29, 30 and 31 were tested for preventing lactate generation by the MDA-MB-231 cells.

[10] = target: T1, modified (70 kDa) 6-phosphofructo-1-kinase (PFK-L), sfPFK-L (Homo sapiens, UniProt P17858); test: in vitro inhibition of purified recombinant modified PFK-L fragment
T1 sequence (P17858 1-645 limits assumed): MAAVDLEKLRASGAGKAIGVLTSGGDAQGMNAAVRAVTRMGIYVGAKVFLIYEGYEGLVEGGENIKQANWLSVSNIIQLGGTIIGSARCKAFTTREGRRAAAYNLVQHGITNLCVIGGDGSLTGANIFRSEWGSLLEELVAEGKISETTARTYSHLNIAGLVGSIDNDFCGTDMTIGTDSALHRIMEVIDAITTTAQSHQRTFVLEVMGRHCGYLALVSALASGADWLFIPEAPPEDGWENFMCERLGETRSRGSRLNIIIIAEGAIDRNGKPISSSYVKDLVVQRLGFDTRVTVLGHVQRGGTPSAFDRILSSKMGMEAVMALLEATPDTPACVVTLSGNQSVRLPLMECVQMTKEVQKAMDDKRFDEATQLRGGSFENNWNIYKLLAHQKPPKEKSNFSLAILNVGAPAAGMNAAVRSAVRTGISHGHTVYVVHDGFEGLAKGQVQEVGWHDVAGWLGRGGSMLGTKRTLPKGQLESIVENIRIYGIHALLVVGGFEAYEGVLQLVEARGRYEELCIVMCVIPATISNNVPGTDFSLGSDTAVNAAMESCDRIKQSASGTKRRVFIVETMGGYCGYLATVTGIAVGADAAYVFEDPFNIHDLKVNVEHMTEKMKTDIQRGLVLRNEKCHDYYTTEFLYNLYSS

Caco-2 cells [11] = test: total cell numbers of Caco-2 cells at end of incubation; format: cell-based; conditions: single addition, end of incubation (92 hours)
Procedure: as §1

MDA-MB-231 cells [12] = test: lactate excretion by MDA-MB-231 cells; format: cell-based; conditions: single addition, different concentrations
Procedure: as §2
Inhibitors No. 23, 29, 30 and 31 were tested for preventing lactate generation by the MDA-MB-231 cells. […] No significant discrepancies of total cell numbers were observed (Figure 14e) due to the different concentrations of inhibitors in the medium. […] The average percent of dead MDA-MB-231 cells in the control and in the presence of different concentrations of inhibitors were as follows: inh. 23 (2,98±0,2%), inh. 29 (3,37±0,39%), inh. 30 (3,4±0,21%), inh. 31 (6,87±0,44%). Additionally, cytotoxicity of inh. 3 (7,2±0,47%) and 9 (6,59±0,29%) for MDA-MB-231 cells were also determined. No dose dependent decrease of survival was observed by any inhibitor.
as §3
In MDA-MB-231 calls similar results to those found in Caco-2 cells were observed. […] No significant cytostatic (Figure 17f) or cytotoxic effect of inhibitors could be detected after 92 hours of incubation despite of sequential addition of various concentrations of inhibitors. The following average percentages of dead cells were perceived in the medium without and with inh. 3 (2,05±0,18%), inh. 9 (1,85±0,05%), inh. 23 (2,20±0,15%), inh. 29 (1,54±0,16%) and inh. 30 (2,00±0,18%). No detrimental effects of increased inhibitors concentrations on cell deaths have been observed.

Caco-2 cells [13] = test: lactate excretion by Caco-2 cells; format: cell-based; conditions: single addition, different concentrations (20-80 µM)
Procedure: Preliminary in vivo tests were run by measuring lactate production by three different tumorigenic cell lines. […] For the experiment, the following tumorigenic cells lines originating from different tumours were tested: Caco-2 cells (Figure 10a), originating from colorectal adenoma carcinoma; COLO 829 cells (Figure 10b), isolated from melanoma; and MDA-MB-231 cells (Figure 10c) derived from metastatic phase of mammary/breast cancer.
as §1
Therefore, the influence of selected inhibitors was assessed by sequential re-insertion of low concentrations of inhibitors at indicated time points. The inhibitors were first added to the medium 8 hours after the inoculation followed by periodically additions at 24-hour intervals (marked by arrows).

| Structure (SMILES) | average percentages of dead cells, COLO 829, sequential re-insertion (COLO 829 cells [1]) | average percent of dead COLO 829 cells (COLO 829 cells [1]) | average percent of dead cells, Caco-2 (Caco-2 cells [5]) | lactate formation in COLO 829 cells, sequential re-insertion (COLO 829 cells [8]) | average percentages of dead cells, MDA-MB-231, sequential re-insertion (MDA-MB-231 cells [9]) | average percent of dead MDA-MB-231 cells (MDA-MB-231 cells [9]) | IC50 [10] | further results |
| --- | --- | --- | --- | --- | --- | --- | --- | --- |
| COc1ccc(-c2cccc(-c3ccn(Cc4noc(C)n4)n3)c2)nn1 [Inhibitor No. 9, 3-methoxy-6-(3-{1-[(5-methyl-1,2,4-oxadiazol-3-yl)methyl]-1H-pyrazol-3-yl}phenyl)pyridazine] | 1,70±0,14% | 3,65±0,78% | 3,33±0,14% | strong reduction of lactate formation | 1,85±0,05% | 6,59±0,29% | – | dead cells (Jurkat cells [2]; Jurkat cells stained with Tripan blue): 3,76±0,3%; effect on growth of Jurkat cells (total cell numbers) (Jurkat cells [2]; different concentrations, 72 hours): no effect; viability of the Jurkat cells, long-term (Jurkat cells [3]): remained unchanged; number of cells, long-term (Jurkat cells [3]; fresh medium with inhibitor every 48 hours): steadily declined; time at which lactate production was averted (Jurkat cells [4]; inhibitor concentrations lower than 200 µM): 36 h; lactate excretion by the Jurkat cells (Jurkat cells [4]; preliminary test, 100 µM inhibitor, followed for 48 hours, versus DMSO control): Significantly lowered lactate excretions; also recorded: effectively prevented excretion; average percentages of dead cells, Caco-2, sequential re-insertion (Caco-2 cells [5]; sequential addition at 24-hour intervals, 92 hours, average over medium without and with inhibitor): 5,05±0,62%; NADH levels (Jurkat cells [6]): steadily decreased in dose dependent manner; ECAR and OCR values prior to the addition of oligomycin A and FCCP (Jurkat cells [7]; 100 µM added 24 hours before the experiment, treated versus untreated cells): untreated Jurkat cells revealed higher ECAR and OCR values; oxygen consumption rate after addition of oligomycin A and FCCP (Jurkat cells [7]; 100 µM, 1 µM oligomycin A and 0,25 µM FCCP, versus untreated cells): slightly stronger affect |
| Nc1nnc(-c2cc(-c3ccc(O)cc3)on2)o1 [Inhibitor No. 30, 4-[3-(5-amino-1,3,4-oxadiazol-2-yl)isoxazol-5-yl]phenol] | 1,38±0,18% | 8,27±0,49% | – | slightly weaker inhibitions | 2,00±0,18% | 3,4±0,21% | 10 µM | total cell numbers, Caco-2 (Caco-2 cells [11]): minor dose dependent reductions in total cell numbers; lactate excretion by MDA-MB-231 cells (MDA-MB-231 cells [12]): strong inhibition; lactate excretion by COLO 829 cells (COLO 829 cells [8]; single addition, different concentrations): strongest reductions of lactate excretion |
| O=C(CCS(=O)(=O)c1ccccc1)Nc1nnc(-c2ccno2)o1 [Inhibitor No. 32, 3-(benzenesulfonyl)-N-(5-isoxazol-5-yl-1,3,4-oxadiazol-2-yl)propanamide] | – | – | 3,97±0,18% | – | – | – | 8 µM | lactate generation by Caco-2 cells (Caco-2 cells [13]): strong inhibition at all tested concentrations |
